Among the data in US20250120988A1, “SMALL MOLECULE COMPOUND FOR TREATING ISCHEMIC STROKE, ITS PREPARATION METHOD, AND APPLICATION” (SHANGHAI SIXTH PEOPLE'S HOSPITAL, priority 2023, published 2025) are IC50 values, retold here.

One assay concerns the target T1, GluN1+NR2B (Homo sapiens, UniProt Q05586+Q13224).
T1 construct: expressed in transfected cells; host or cells: CHO cells
Briefly: Whole-cell patch clamp, blocking of GluN1+NR2B NMDAR current in CHO cells. The assay is classed as cell-based. Conditions: 100 μM NMDA and 1 μM glycine, read-out: IC50 of competitive antagonism against glutamate binding GluN1+NR2B currents. Here is the method: Figure a illustrates LK-2 concentration-dependent blocking of signal of GluN1+GluN2A and GluN1+GluN2B subtypes of NMDAR currents (recorded from the same CHO cell) in patch clamp experiments, with 100 μM NDMA and 1 μM glycine used to activate NMDAR currents. LK-2 concentrations were 1, 10, 100, and 500 μM in sequence. Figure b illustrates the dose-response curves fitted based on the current amplitudes recorded in Figure a, with IC50 representing the half-maximal inhibitory concentration. Smaller IC50 values indicate stronger blocking effects of the compound.
[drawing 3] • 2. Electrophysiological experiments refer to the use of patch clamp techniques to overexpress ASICs (ASIC1a) and NMDARs (GluNR1+NR2A or GluNR1+NR2B) in CHO cell lines (Chinese hamster ovary cells), with the above-mentioned proteins carrying GFP green fluorescent protein for identification under fluorescence microscopy. The synthesized small molecules are separately tested for their blocking effects on the currents generated by the two types of receptors, and the IC50 values are calculated. • 2.1 The experimental steps of the membrane clamp technique are as follows.
Whole-cell patch clamp recordings were performed on neurons or CHO cells cultured in a cell-culture dish mounted on a fixed stage upright microscope. The recording electrode (resistance 4-6 MΩ) was made of 1.5 mm borosilicate glass. […]

Another assay has as its target T2, ASIC1a (Homo sapiens, UniProt P78348).
T2 construct: expressed in transfected cells
T2 sequence (P78348 1-528): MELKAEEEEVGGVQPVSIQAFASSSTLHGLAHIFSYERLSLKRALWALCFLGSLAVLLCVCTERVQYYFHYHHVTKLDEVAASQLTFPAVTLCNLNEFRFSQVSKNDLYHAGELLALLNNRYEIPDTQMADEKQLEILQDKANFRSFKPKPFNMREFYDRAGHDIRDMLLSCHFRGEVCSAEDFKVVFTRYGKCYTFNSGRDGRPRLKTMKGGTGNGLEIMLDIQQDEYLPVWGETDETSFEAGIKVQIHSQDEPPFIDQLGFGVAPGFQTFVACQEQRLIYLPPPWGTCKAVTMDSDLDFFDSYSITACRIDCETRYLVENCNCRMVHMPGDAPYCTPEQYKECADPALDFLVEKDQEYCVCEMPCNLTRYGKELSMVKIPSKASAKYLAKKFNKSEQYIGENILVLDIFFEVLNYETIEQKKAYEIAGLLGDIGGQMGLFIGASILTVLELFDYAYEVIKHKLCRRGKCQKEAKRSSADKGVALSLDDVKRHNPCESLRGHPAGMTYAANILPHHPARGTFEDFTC
Briefly: Whole-cell patch clamp, competitive blocking of glutamate-potentiated ASIC1a current in CHO cells. The assay is classed as cell-based. Conditions: pH 7.0, 500 μM glutamate, read-out: IC50 of competitive antagonism against the glutamate binding ASIC1a current. Here is the method: Figure a illustrates the LK-2 concentration-dependent blocking of signal of ASIC1a current (recorded from the same CHO cell) activated at pH 7 in patch clamp experiments, with a glutamate concentration of 500 μM and LK-2 concentrations of 1, 10, 50, and 100 μM in sequence. […] Smaller values indicate stronger blocking effects of the compound.
[drawing 3] • 2. Electrophysiological experiments refer to the use of patch clamp techniques to overexpress ASICs (ASIC1a) and NMDARs (GluNR1+NR2A or GluNR1+NR2B) in CHO cell lines (Chinese hamster ovary cells), with the above-mentioned proteins carrying GFP green fluorescent protein for identification under fluorescence microscopy. The synthesized small molecules are separately tested for their blocking effects on the currents generated by the two types of receptors, and the IC50 values are calculated. • 2.1 The experimental steps of the membrane clamp technique are as follows. […]
Chinese hamster ovary cells (CHO) and HEK293T cells (provided by the Chinese Academy of Sciences Stem Cell Bank) were cultured separately in F12 and DMEM media (Gibco) containing 10% FBS (Gibco). […] All experiments were performed 24-48 hours after transfection, and all culture dishes were washed three times with ECF before the experiment, and GFP-positive CHO cells were observed under a fluorescence microscope for patch clamp recording. […]
Background: The patch-clamp technique gives a direct electrical read-out from membranes.

T1 sequence (Q13224 27-1484, other chains not shown): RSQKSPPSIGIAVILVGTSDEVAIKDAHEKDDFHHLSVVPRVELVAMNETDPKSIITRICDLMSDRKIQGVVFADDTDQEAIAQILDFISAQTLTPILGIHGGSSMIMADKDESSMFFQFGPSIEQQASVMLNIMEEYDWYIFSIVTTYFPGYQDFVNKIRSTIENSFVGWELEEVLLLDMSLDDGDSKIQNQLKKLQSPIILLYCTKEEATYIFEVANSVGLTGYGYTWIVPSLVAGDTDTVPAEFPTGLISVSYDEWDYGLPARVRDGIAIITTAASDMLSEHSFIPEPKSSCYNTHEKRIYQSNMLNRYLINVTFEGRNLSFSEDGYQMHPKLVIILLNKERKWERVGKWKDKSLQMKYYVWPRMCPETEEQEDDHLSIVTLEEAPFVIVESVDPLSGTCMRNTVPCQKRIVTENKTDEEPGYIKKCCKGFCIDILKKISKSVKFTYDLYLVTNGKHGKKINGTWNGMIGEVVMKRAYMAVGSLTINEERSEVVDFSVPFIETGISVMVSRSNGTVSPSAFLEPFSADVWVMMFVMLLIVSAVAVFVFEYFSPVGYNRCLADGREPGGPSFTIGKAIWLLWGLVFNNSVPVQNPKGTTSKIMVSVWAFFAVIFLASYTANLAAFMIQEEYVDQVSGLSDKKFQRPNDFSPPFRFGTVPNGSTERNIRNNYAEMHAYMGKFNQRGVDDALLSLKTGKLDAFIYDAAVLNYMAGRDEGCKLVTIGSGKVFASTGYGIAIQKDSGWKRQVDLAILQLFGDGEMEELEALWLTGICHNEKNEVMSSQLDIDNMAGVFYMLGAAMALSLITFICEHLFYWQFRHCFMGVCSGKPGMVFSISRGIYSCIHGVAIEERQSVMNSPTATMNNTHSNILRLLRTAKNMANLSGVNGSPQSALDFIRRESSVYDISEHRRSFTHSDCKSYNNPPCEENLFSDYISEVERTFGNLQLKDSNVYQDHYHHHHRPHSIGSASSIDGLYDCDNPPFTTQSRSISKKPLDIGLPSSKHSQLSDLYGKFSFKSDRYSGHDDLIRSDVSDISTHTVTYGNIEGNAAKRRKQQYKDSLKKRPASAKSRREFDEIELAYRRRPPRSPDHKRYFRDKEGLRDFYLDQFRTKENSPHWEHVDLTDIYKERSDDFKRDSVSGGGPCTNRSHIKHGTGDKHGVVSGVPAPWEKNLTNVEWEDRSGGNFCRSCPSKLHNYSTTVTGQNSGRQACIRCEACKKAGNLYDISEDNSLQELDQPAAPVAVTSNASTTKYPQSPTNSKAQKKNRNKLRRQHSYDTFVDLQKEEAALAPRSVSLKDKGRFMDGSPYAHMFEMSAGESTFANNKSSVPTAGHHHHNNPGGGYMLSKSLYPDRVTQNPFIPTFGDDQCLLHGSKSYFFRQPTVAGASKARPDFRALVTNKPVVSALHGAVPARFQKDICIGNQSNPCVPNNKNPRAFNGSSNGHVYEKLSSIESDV

As for `O=C(O)C1CN(C(c2ccccc2)P(=O)(O)O)CCN1` (centres unmarked) [LK-2], the IC50 on GluN1+NR2B was 386 ± 109 µM; at ASIC1a, 6.6 ± 2.1 µM.

What is called IC50 is the concentration that inhibits the measured activity by half.
